Experimental data taken from patent US6893627B2, “Method for treating type 2 diabetes with an extract of Artemisia” (Rutgers, The State University of New Jersey, priority 2001, dated 2005).

System: Streptozotocin (STZ)-treated mice
Experiment: Blood glucose lowering in Streptozotocin (STZ)-treated mice
Assay type: in vivo
Details: insulin 1 IU/kg subcutaneously
Description: The efficacy of the Artemisia dracunculus extract was evaluated in Streptozotocin (STZ)-treated mice. STZ induces diabetes by destroying most, if not all, of the beta cells of the pancreas, leaving the animals with little or no insulin production and severe hyperglycemia [Hisashi, et al., European Journal of Pharmacology, 87:237-243 (1983)]. […] Mice were treated with STZ as described by Hisashi et al., European Journal of Pharmacology, 87:237-243 (1983). A 500 mg/kg dose of Artemisia dracunculus extract was administered daily by oral gavage to STZ-treated mice for a period of 7 days. Additionally, a dose of insulin (1 IU/kg) was administered. subcutaneously to STZ-treated mice, while 20 ml/kg of vehicle only (0.9% NaCl or 2% Tween 80 in distilled water) was administered to STZ-treated mice, as a control. […] Regardless of mechanism, however, the results establish that plant extracts, such as the mildly polar ethanolic extract of A. dracunculus, can be orally administered in a dose effective in lowering blood glucose levels.

insulin
reduction in blood glucose concentrations: 42%
